Experimental findings from patent publication US20260103458A1, “Inhibitors of CDK8 and CDK19” (University of Dundee, priority 2022, published 2026) are described below.

SMILES strings stand for the structures.

The target of one experiment is T1, CDK8 (Homo sapiens, UniProt P49336).
T1 construct: made in house; host or cells: E. coli BL21-derived host (T7 phage display) or HEK-293 cells
Nature of the experiment: Kinase competition binding assay (Kd, qPCR readout), CDK8. The conditions noted are these: in vitro binding; 11-point 3-fold dilution series; read-out: pKd (CDK8) (converted). Here is the method:
(§1) Compounds 1 to 11 were tested for their in vitro binding activity against CDK8 and CDK19.
(§2) Kinase assays: Kinase-tagged T7 phage strains were prepared in an E. coli host derived from the BL21 strain. E. coli were grown to log-phase and infected with T7 phage and incubated with shaking at 32° C. until lysis. The lysates were centrifuged and filtered to remove cell debris. The remaining kinases were produced in HEK-293 cells and subsequently tagged with DNA for qPCR detection. Streptavidin-coated magnetic beads were treated with biotinylated small molecule ligands for 30 minutes at room temperature to generate affinity resins for kinase assays. The liganded beads were blocked with excess biotin and washed with blocking buffer (SeaBlock (Pierce), 1% BSA, 0.05% Tween 20, 1 mM DTT) to remove unbound ligand and to reduce non-specific binding. Binding reactions were assembled by combining kinases, liganded affinity beads, and test compounds in 1× binding buffer (20% SeaBlock, 0.17×PBS, 0.05% Tween 20, 6 mM DTT). Test compounds were prepared as 111× stocks in 100% DMSO. Kds were determined using an 11-point 3-fold compound dilution series with three DMSO control points. All compounds for Kd measurements are distributed by acoustic transfer (non-contact dispensing) in 100% DMSO. The compounds were then diluted directly into the assays such that the final concentration of DMSO was 0.9%. All reactions performed in polypropylene 384-well plate. Each was a final volume of 0.02 ml. The assay plates were incubated at room temperature with shaking for 1 hour and the affinity beads were washed with wash buffer (1×PBS, 0.05% Tween 20). The beads were then re-suspended in elution buffer (1×PBS, 0.05% Tween 20, 0.5 μM nonbiotinylated affinity ligand) and incubated at room temperature with shaking for 30 minutes. The kinase concentration in the eluates was measured by qPCR.
(§3) Compound handling: An 11-point 3-fold serial dilution of each test compound was prepared in 100% DMSO at 100× final test concentration and subsequently diluted to 1× in the assay (final DMSO concentration=1%). Most Kds were determined using a compound top concentration=30,000 nM. If the initial Kd determined was <0.5 nM (the lowest concentration tested), the measurement was repeated with a serial dilution starting at a lower top concentration.
(§4) Binding constants: Binding constants (Kds) were calculated with a standard dose-response curve using the Hill equation: […]
(§5) The Hill Slope was set to −1.
(§6) Curves were fitted using a non-linear least square fit with the Levenberg-Marquardt algorithm.

For the next experiment, the target named is T2, CDK19 (Homo sapiens, UniProt Q9BWU1).
T2 construct: made in house; host or cells: E. coli BL21-derived host (T7 phage display) or HEK-293 cells
Briefly: Kinase competition binding assay (Kd, qPCR readout), CDK19. To be noted: in vitro binding; 11-point 3-fold dilution series; read-out: pKd (CDK19) (converted). Here is the method: as §1, §2, §3, §4, §5, §6

T2 sequence (Q9BWU1 whole entry): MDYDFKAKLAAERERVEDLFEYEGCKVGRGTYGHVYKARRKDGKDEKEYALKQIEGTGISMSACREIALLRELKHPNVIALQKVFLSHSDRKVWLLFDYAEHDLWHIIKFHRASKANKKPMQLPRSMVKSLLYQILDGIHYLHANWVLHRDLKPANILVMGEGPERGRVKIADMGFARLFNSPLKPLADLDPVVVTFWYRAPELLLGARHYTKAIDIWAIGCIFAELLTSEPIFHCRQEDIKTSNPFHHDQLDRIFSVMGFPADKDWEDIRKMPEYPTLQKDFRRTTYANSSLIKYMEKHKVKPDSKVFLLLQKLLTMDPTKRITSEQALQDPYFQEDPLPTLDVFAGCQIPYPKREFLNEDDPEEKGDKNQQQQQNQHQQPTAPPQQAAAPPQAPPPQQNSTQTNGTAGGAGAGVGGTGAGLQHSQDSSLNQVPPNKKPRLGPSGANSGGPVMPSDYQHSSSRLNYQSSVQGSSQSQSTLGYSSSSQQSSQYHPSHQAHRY
T1 sequence (P49336 whole entry): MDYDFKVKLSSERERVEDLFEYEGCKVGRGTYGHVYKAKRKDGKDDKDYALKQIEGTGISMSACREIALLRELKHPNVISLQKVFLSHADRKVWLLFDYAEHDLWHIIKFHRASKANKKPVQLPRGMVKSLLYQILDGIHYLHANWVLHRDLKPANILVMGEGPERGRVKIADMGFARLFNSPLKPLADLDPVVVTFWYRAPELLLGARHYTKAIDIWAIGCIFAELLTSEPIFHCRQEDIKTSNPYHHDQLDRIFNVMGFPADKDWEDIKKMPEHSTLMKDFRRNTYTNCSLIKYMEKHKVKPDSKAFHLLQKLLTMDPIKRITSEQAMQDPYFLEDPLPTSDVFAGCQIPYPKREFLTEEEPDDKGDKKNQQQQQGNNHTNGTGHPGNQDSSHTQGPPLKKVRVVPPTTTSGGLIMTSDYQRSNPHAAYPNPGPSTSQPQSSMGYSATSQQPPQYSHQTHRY

Consider `O=C(NC1CCN(c2snc3ccccc23)CC1)c1cn(Cc2ncccn2)cn1` [Compound 11, N-(1-(benzo[c]isothiazol-3-yl)piperidin-4-yl)-1-(pyrimidin-2-ylmethyl)-1H-imidazole-4-carboxamide], for which the Kd on CDK8 is 0.501 µM; at CDK19 it was 0.1 µM.
For `CC(=O)NC1CCN(c2snc3ccccc23)CC1` [Compound 2, N-(1-(benzo[c]isothiazol-3-yl)piperidin-4-yl)acetamide], in that order: 10 µM and 6.31 µM.
For `O=C(NC1CCN(c2snc3ccc(F)cc23)CC1)c1cn(Cc2cnccn2)cn1` [Compound 6, N-(1-(5-fluorobenzo[c]isothiazol-3-yl)piperidin-4-yl)-1-(pyrazin-2-ylmethyl)-1H-imidazole-4-carboxamide] the same measures were 0.0251 µM and 0.02 µM.
For `CNC1CCN(c2snc3ccccc23)CC1` [Compound 1, 1-(benzo[c]isothiazol-3-yl)-N-methylpiperidin-4-amine], in that order: 31.6 µM and 31.6 µM.
On to `CN(C)C(=O)Cn1cnc(C(=O)NC2CCN(c3snc4ccccc34)CC2)c1` [Compound 7, N-(1-(benzo[c]isothiazol-3-yl)piperidin-4-yl)-1-(2-(dimethylamino)-2-oxoethyl)-1H-imidazole-4-carboxamide], for which the Kd on CDK8 was 0.631 µM; at CDK19 it was 0.2 µM.
For `Cn1cnc(C(=O)NC2CCN(c3snc4ccccc34)CC2)c1` [Compound 3, N-(1-(benzo[c]isothiazol-3-yl)piperidin-4-yl)-1-methyl-1H-imidazole-4-carboxamide], in that order: 0.398 µM and 0.158 µM.
For `CN(C)CCn1cnc(C(=O)NC2CCN(c3snc4ccccc34)CC2)c1` [Compound 9, N-(1-(benzo[c]isothiazol-3-yl)piperidin-4-yl)-1-(2-(dimethylamino)ethyl)-1H-imidazole-4-carboxamide] the same measures were 3.98 µM and 1.26 µM.
For `O=C(NC1CCN(c2snc3ccccc23)CC1)c1cn(CC2COC2)cn1` [Compound 10, N-(1-(benzo[c]isothiazol-3-yl)piperidin-4-yl)-1-(oxetan-3-ylmethyl)-1H-imidazole-4-carboxamide] the same measures were 0.316 µM and 0.1 µM.
`Cn1cnc(C(=O)NC2CCN(c3snc4ccc(F)cc34)CC2)c1` [Compound 4, N-(1-(5-fluorobenzo[c]isothiazol-3-yl)piperidin-4-yl)-1-methyl-1H-imidazole-4-carboxamide]: the Kd at CDK8 was 0.0631 µM; on CDK19, 0.0501 µM.
For `O=C(NC1CCN(c2snc3ccccc23)CC1)c1cn(Cc2cnccn2)cn1` [Compound 5, N-(1-(benzo[c]isothiazol-3-yl)piperidin-4-yl)-1-(pyrazin-2-ylmethyl)-1H-imidazole-4-carboxamide] the same measures were 0.2 µM and 0.0794 µM.
For `CN(C)C(=O)Cn1cnc(C(=O)NC2CCN(c3snc4ccc(F)cc34)CC2)c1` [Compound 8, 1-(2-(dimethylamino)-2-oxoethyl)-N-(1-(5-fluorobenzo[c]isothiazol-3-yl)piperidin-4-yl)-1H-imidazole-4-carboxamide], in that order: 0.501 µM and 0.316 µM.
